Measured values: patent US5395947A, “Platinum(II) complex and processes for preparing the same” (Sunkyong Industries, Ltd., priority 1991, dated 1995)

How the values were obtained:
[1] = system: murine leukemia L1210 cells; assay: Growth inhibition test on cultured murine leukemia L1210 cells; type: cell-based; conditions: 48 hours, 37° C., Trypan blue viability
Summary of the method: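 Read-out is Trypan blue (0.17%) viability versus compound-free controls. Cells, 1×10^5, were cultured 48 h at 37° C under 5% CO2 in RPMI 1640/10% FCS containing various compound concentrations.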

murine leukemia L1210 = assay: Antitumor activity test on murine leukemia L1210 in vivo; parameters: species or system male BDF1 mice; conditions: days 1, 5, 9
Summary of the method: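 Male BDF1 mice (6 weeks, 21±3 g; n=7) received 1×10^6 leukemia cells into the peritoneum on day 0, then test compound suspended or dissolved in 0.5% CMC i.p. on days 1, 5, 9. Activity expressed as T/C %, mean survival treated versus 0.5% CMC-injected controls.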

[2] = Test for water solubility; type: physicochemical; conditions: 20° C.
From the text: 3. Test for water solubility
A standard plot of UV absorbance(220 nm) vs. concentration was made; and employed to determine water-solubility.
The mixture was then passed through a 0.45 micron disposable membrane filter before dilution and UV measurement.

Test for nephrotoxicity = type: in vivo, male ICR mice
Experimental: 4. Test for nephrotoxicity
The compounds of the present invention were dissolved or suspended in 0.5% CMC solution(in water) and were administered intraperitoneally one time to 8-week-old male ICR mice weighing 30±3 g. Each treatment and control groups consisted of six mice.
The administration amount of the test compound was 1.5 times the optimum dose obtained in Table 2, or more. On days 1, 4 and 8 after administration, their blood was collected under ether anesthesia for measurement of blood urea nitrogen concentration (BUN value) and creatinine concentration.
A pair of kidneys were taken and, after immediate weighing, were stored in a 10% neutral buffered formalin solution. The body weight ratio shown in Table 5 is a ratio of the body weight measured on days 1, 4 and 8 from the administration of the compound to the body weight measured on the administration day.

ICR mice = assay: Acute toxicity test; type: in vivo; parameters: Lethality: unit not given here; conditions: for Lethality: 10080 min
Summary of the method: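 Single i.p. administration to ICR mice (7 weeks old, both sexes, n=6/group); appearance and mortality logged over 7 days, dead animals autopsied for gross pathology.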

human cancers = conditions: testicular, ovarian, bladder, head and neck cancer; cited from earlier work
[3] = 150 mg/kg i.p. once, mean ± standard error
[4] = 150 mg/kg i.p. once, vs. administration day

For `CCC1O[C@H](CN)[C@@H](CN)O1.O=C1C[O][Pt][O]1` [Example 6, (glycolato-O,O')[(4R,5R)-4,5-bis(aminomethyl)-2-ethyl-1,3-dioxolane]platinum(II)], the “IC50 (concentration required for 50% inhibition of growth)” value [1] was 0.22 µg/mL, the “T/C (%)” value (murine leukemia L1210; 3.1 mg/kg i.p.) was 113% and the “T/C (%)” value (murine leukemia L1210; 6.2 mg/kg i.p.) was 162%. The “T/C (%)” value (murine leukemia L1210; 12.5 mg/kg i.p.) was 205%, the “T/C (%)” value (murine leukemia L1210; 25 mg/kg i.p.) was “toxic” and the “T/C (%)” value (murine leukemia L1210; 50 mg/kg i.p.) was “toxic”. The Solubility in water [2] was over 50 mg/mL, the “BUN, 1st day” value (Test for nephrotoxicity; 18.8 mg/kg i.p. once) was 22.41 mg/100 ml and the “BUN, 4th day” value (Test for nephrotoxicity; 18.8 mg/kg i.p. once) was 22.67 mg/100 ml. For the same compound, the “BUN, 8th day” value (Test for nephrotoxicity; 18.8 mg/kg i.p. once) was 30.41 mg/100 ml, the “Number of dead mice for 7 days” value (ICR mice; female, 25.0 mg/kg i.p.) was 0/6 and the “Number of dead mice, 1st day” value (ICR mice; female, 25.0 mg/kg i.p.) was 0/6. For the same compound, the “Number of dead mice for 7 days” value (ICR mice; female, 32.5 mg/kg i.p.) was 1/6, the “Number of dead mice, 1st day” value (ICR mice; female, 32.5 mg/kg i.p.) was 0/6 and the “Number of dead mice, 3rd day” value (ICR mice; female, 32.5 mg/kg i.p.) was 1/6. For the same compound, the Lethality (ICR mice; female, 32.5 mg/kg i.p.) was 16.7, the “Number of dead mice for 7 days” value (ICR mice; female, 42.3 mg/kg i.p.) was 3/6 and the “Number of dead mice, 1st day” value (ICR mice; female, 42.3 mg/kg i.p.) was 0/6. The “Number of dead mice, 3rd day” value (ICR mice; female, 42.3 mg/kg i.p.) was 1/6, the “Number of dead mice, 4th day” value (ICR mice; female, 42.3 mg/kg i.p.) was 1/5 and the “Number of dead mice, 5th day” value (ICR mice; female, 42.3 mg/kg i.p.) was 1/4. For the same compound, the Lethality (ICR mice; female, 42.3 mg/kg i.p.) was 50.0, the “Number of dead mice for 7 days” value (ICR mice; female, 55.0 mg/kg i.p.) was 5/6 and the “Number of dead mice, 1st day” value (ICR mice; female, 55.0 mg/kg i.p.) was 0/6. The “Number of dead mice, 3rd day” value (ICR mice; female, 55.0 mg/kg i.p.) was 4/6, the “Number of dead mice, 4th day” value (ICR mice; female, 55.0 mg/kg i.p.) was 1/2 and the Lethality (ICR mice; female, 55.0 mg/kg i.p.) was 83.3. The “Number of dead mice for 7 days” value (ICR mice; female, 71.4 mg/kg i.p.) was 6/6, the “Number of dead mice, 1st day” value (ICR mice; female, 71.4 mg/kg i.p.) was 0/6 and the “Number of dead mice, 3rd day” value (ICR mice; female, 71.4 mg/kg i.p.) was 4/6. The “Number of dead mice, 4th day” value (ICR mice; female, 71.4 mg/kg i.p.) was 2/2, the Lethality (ICR mice; female, 71.4 mg/kg i.p.) was 100.0 and the “Number of dead mice for 7 days” value (ICR mice; male, 25.0 mg/kg i.p.) was 0/6. For the same compound, the “Number of dead mice, 1st day” value (ICR mice; male, 25.0 mg/kg i.p.) was 0/6, the “Number of dead mice for 7 days” value (ICR mice; male, 32.5 mg/kg i.p.) was 0/6 and the “Number of dead mice, 1st day” value (ICR mice; male, 32.5 mg/kg i.p.) was 0/6. The “Number of dead mice, 3rd day” value (ICR mice; male, 32.5 mg/kg i.p.) was 1/6, the Lethality (ICR mice; male, 32.5 mg/kg i.p.) was 16.7 and the “Number of dead mice for 7 days” value (ICR mice; male, 42.3 mg/kg i.p.) was 4/6. For the same compound, the “Number of dead mice, 1st day” value (ICR mice; male, 42.3 mg/kg i.p.) was 0/6, the “Number of dead mice, 3rd day” value (ICR mice; male, 42.3 mg/kg i.p.) was 1/6 and the “Number of dead mice, 4th day” value (ICR mice; male, 42.3 mg/kg i.p.) was 2/5. For the same compound, the “Number of dead mice, 5th day” value (ICR mice; male, 42.3 mg/kg i.p.) was 1/3, the Lethality (ICR mice; male, 42.3 mg/kg i.p.) was 66.7 and the “Number of dead mice for 7 days” value (ICR mice; male, 55.0 mg/kg i.p.) was 6/6. The “Number of dead mice, 1st day” value (ICR mice; male, 55.0 mg/kg i.p.) was 0/6, the “Number of dead mice, 3rd day” value (ICR mice; male, 55.0 mg/kg i.p.) was 4/6 and the “Number of dead mice, 4th day” value (ICR mice; male, 55.0 mg/kg i.p.) was 1/2. The “Number of dead mice, 5th day” value (ICR mice; male, 55.0 mg/kg i.p.) was 1/1, the Lethality (ICR mice; male, 55.0 mg/kg i.p.) was 100.0 and the “Number of dead mice for 7 days” value (ICR mice; male, 71.4 mg/kg i.p.) was 6/6. For the same compound, the “Number of dead mice, 1st day” value (ICR mice; male, 71.4 mg/kg i.p.) was 0/6, the “Number of dead mice, 3rd day” value (ICR mice; male, 71.4 mg/kg i.p.) was 4/6 and the “Number of dead mice, 4th day” value (ICR mice; male, 71.4 mg/kg i.p.) was 2/2. The Lethality (ICR mice; male, 71.4 mg/kg i.p.) was 100.0.

For `CC1OC2C[NH2+][Pt-2]3([NH2+]CC2O1)[O]C(=O)C1(CCC1)C(=O)[O]3` [Example 23, cis-cyclobutane-1,1-dicarboxylato[(4S,5S)-4,5-bis(aminomethyl)-2-methyl-1,3-dioxolane]platinum(II)], the “IC50 (concentration required for 50% inhibition of growth)” value [1] was 1.75 µg/mL, the “T/C (%)” value (murine leukemia L1210; 6.2 mg/kg i.p.) was 108% and the “T/C (%)” value (murine leukemia L1210; 12.5 mg/kg i.p.) was 115%. For the same compound, the “T/C (%)” value (murine leukemia L1210; 25 mg/kg i.p.) was 150%, the “T/C (%)” value (murine leukemia L1210; 50 mg/kg i.p.) was 201% and the “T/C (%)” value (murine leukemia L1210; 100 mg/kg i.p.) was 254%. The Solubility in water [2] was 22.1 mg/mL, the “BUN, 1st day” value (Test for nephrotoxicity; 150 mg/kg i.p. once) was 24.8 mg/100 ml and the “BUN, 4th day” value (Test for nephrotoxicity; 150 mg/kg i.p. once) was 32.1 mg/100 ml. The “BUN, 8th day” value (Test for nephrotoxicity; 150 mg/kg i.p. once) was 42.0 mg/100 ml, the “Creatinine, 1st day” value (Test for nephrotoxicity; 150 mg/kg i.p. once) was 0.26 mg/100 ml and the “Creatinine, 4th day” value (Test for nephrotoxicity; 150 mg/kg i.p. once) was 0.30 mg/100 ml. For the same compound, the “Creatinine, 8th day” value (Test for nephrotoxicity; 150 mg/kg i.p. once) was 0.28 mg/100 ml, the “Kidney wt (paired weight), 1st day” value (Test for nephrotoxicity; [3]) was 492 ± 22.7 mg and the “Kidney wt (paired weight), 4th day” value (Test for nephrotoxicity; [3]) was 535 ± 16.3 mg. For the same compound, the “Kidney wt (paired weight), 8th day” value (Test for nephrotoxicity; [3]) was 527 ± 13.8 mg, the “body weight ratio (BWR), 1st day” value (Test for nephrotoxicity; [4]) was 0.98 and the “body weight ratio (BWR), 4th day” value (Test for nephrotoxicity; [4]) was 0.96. For the same compound, the “body weight ratio (BWR), 8th day” value (Test for nephrotoxicity; [4]) was 0.99.

With `N.N.[Cl][Pt][Cl]` [cisplatin, cis-dichlorodiammineplatinum(II), reference compound] the “IC50 (concentration required for 50% inhibition of growth)” value [1] was 0.06 µg/mL, the “T/C (%)” value (murine leukemia L1210; 1.5 mg/kg i.p.) was 142% and the “T/C (%)” value (murine leukemia L1210; 3.1 mg/kg i.p.) was 167%. The “T/C (%)” value (murine leukemia L1210; 6.2 mg/kg i.p.) was 82%, the “T/C (%)” value (murine leukemia L1210; 12.5 mg/kg i.p.) was “toxic” and the “T/C (%)” value (murine leukemia L1210; 25 mg/kg i.p.) was “toxic”. For the same compound, the “effectiveness on human cancers” value (human cancers) was “effective on a variety of human cancers”.
